Results as given in patent publication US7973056B2, “Triazole derivative or salt thereof” (Fujifilm Finechemicals Co., Ltd, priority 2008, dated 2011).

Tested on: Candida albicans TIMM 1623
Experiment: Antifungal activity test (in vivo), mouse systemic infection model
Settings: for T/C (%): survival time of administration group / control group x100
Protocol: With respect to compounds I-1, I-3 and I-6 obtained in Examples 1, 3 and 6 respectively, therapeutic effects at the time of subcutaneous administration of compounds I-1, I-3 and I-6 on a mouse systemic infection model by Candida albicans TIMM 1623 were tested.
The test was carried out using 5 animals for each of the drug administration groups and Negative control group (sterile physiological saline administration group).
Each of compounds I-1, I-3 and I-6 was dissolved in and diluted with dimethyl sulfoxide (DMSO; Wako Pure Chemical Industries, Ltd.) and then prepared into a predetermined concentration by diluting with sterile physiological saline.
As the control experiment, Fluconazole (FLCZ, Flanos intravenous drip solution 100 mg; TOYAMA CHEMICAL CO, LTD.) diluted to a predetermined concentration with sterile physiological saline was used.
On the next day of the receipt of animals, body weights of mice were measured and CP (crude protein) was intraperitoneally administered at a dose of 200 mg/kg based on the individual body weight, and then they were reared for 3 days.
Cells of C. albicans TIMM 1623 cultured overnight at 35° C. on SDA (Sabouraud dextrose agar; Eiken Chemical Co., Ltd.) plate medium were suspended in sterile physiological saline and used as the Stock solution, and a portion thereof was diluted with 10% formalin (Wako Pure Chemical Industries, Ltd.). The number of cells in the diluted liquid was counted under a biological microscope using a hemocytometer, and then an inoculum was prepared by diluting the stock solution with sterile physiological saline (about 1.5×10^5 cells/ml). By inoculating 0.2 ml of this cell suspension through caudal vein, infection was induced. In this connection, the number of viable cells in the inoculum was verified by spreading the cell suspension optionally diluted with sterile physiological saline on an SDA plate medium and then culturing at 35° C. Each of the substances to be tested, control substance or sterile physiological saline was subcutaneously administered after 2 hours of the infection and for 3 days starting on the next day of infection once a day, a total of 4 times. After measuring individual body weight on the next day of infection, CP was again administered intraperitoneally at a dose of 100 mg/kg. The number of survived mice was observed and recorded for 14 days starting on the next day of infection.
The results were shown in Table 3 below and FIGS. 1A to 1D. In the table, the administration dose of the compounds of the present invention and the comparative compound represents a mg amount per 1 kg of a mouse weight (mg/kg).
Significant deference was tested, by 5% for both sides of the levels of significance, in accordance with the Kaplan-Meier method Logrank test (comparison of multiple groups), on the survival time distribution of each of the substances to be tested and control substance administration groups and sterile physiological saline administration group. SAS release 8.2 (SAS Institute Japan) was used in the Kaplan-Meier method Logrank test. (T/C(%)=[survival time of administration group (integrated value)/survival time of control group (integrated value)]×100)

Question: With `C[C@@H](N1CC=C(c2ccc(Cl)cn2)CC1)[C@](O)(Cn1cncn1)c1ccc(F)cc1F` [I-6, (2R,3R)-3-(5-chloro-3′,6′-dihydro-2,4′-bipyridin-1′(2′H)-yl)-2-(2,4-difluorophenyl)-1-(1,2,4-triazol-1-yl)butan-2-ol] as the compound, how does the survival rate (0.1 mg/kg s.c., day 0) read?
Answer: 100

Question: What about the survival rate (0.1 mg/kg s.c., day 1) of the same compound?
Answer: 100

Question: And the survival rate (0.1 mg/kg s.c., day 2)?
Answer: 100

Question: And the survival rate (0.1 mg/kg s.c., day 3)?
Answer: 100

Question: What about the survival rate (0.1 mg/kg s.c., day 4) of the same compound?
Answer: 100

Question: And the survival rate (0.1 mg/kg s.c., day 5)?
Answer: 100

Question: What about the survival rate (0.1 mg/kg s.c., day 6) of the same compound?
Answer: 100

Question: And the survival rate (0.1 mg/kg s.c., day 7)?
Answer: 80

Question: What about the survival rate (0.1 mg/kg s.c., day 8) of the same compound?
Answer: 60

Question: And the survival rate (0.1 mg/kg s.c., day 9)?
Answer: 60

Question: And the survival rate (0.1 mg/kg s.c., day 10)?
Answer: 60

Question: And the survival rate (0.1 mg/kg s.c., day 11)?
Answer: 60

Question: What about the survival rate (0.1 mg/kg s.c., day 12) of the same compound?
Answer: 60

Question: What about the survival rate (0.1 mg/kg s.c., day 13) of the same compound?
Answer: 60

Question: And the survival rate (0.1 mg/kg s.c., day 14)?
Answer: 60

Question: And the “T/C (%)” value (0.1 mg/kg s.c.)?
Answer: 194%

Question: And the survival rate (1 mg/kg s.c., day 0)?
Answer: 100

Question: And the survival rate (1 mg/kg s.c., day 1)?
Answer: 100

Question: What about the survival rate (1 mg/kg s.c., day 2) of the same compound?
Answer: 100

Question: And the survival rate (1 mg/kg s.c., day 3)?
Answer: 100

Question: What about the survival rate (1 mg/kg s.c., day 4) of the same compound?
Answer: 100

Question: What about the survival rate (1 mg/kg s.c., day 5) of the same compound?
Answer: 100

Question: And the survival rate (1 mg/kg s.c., day 6)?
Answer: 100

Question: And the survival rate (1 mg/kg s.c., day 7)?
Answer: 100

Question: What about the survival rate (1 mg/kg s.c., day 8) of the same compound?
Answer: 100

Question: What about the survival rate (1 mg/kg s.c., day 9) of the same compound?
Answer: 100

Question: What about the survival rate (1 mg/kg s.c., day 10) of the same compound?
Answer: 100

Question: And the survival rate (1 mg/kg s.c., day 11)?
Answer: 100

Question: And the survival rate (1 mg/kg s.c., day 12)?
Answer: 100

Question: And the survival rate (1 mg/kg s.c., day 13)?
Answer: 100

Question: And the survival rate (1 mg/kg s.c., day 14)?
Answer: 100

Question: What about the “T/C (%)” value (1 mg/kg s.c.) of the same compound?
Answer: 242%

Question: What about the survival rate (10 mg/kg s.c., day 0) of the same compound?
Answer: 100

Question: And the survival rate (10 mg/kg s.c., day 1)?
Answer: 100

Question: What about the survival rate (10 mg/kg s.c., day 2) of the same compound?
Answer: 100

Question: What about the survival rate (10 mg/kg s.c., day 3) of the same compound?
Answer: 100

Question: What about the survival rate (10 mg/kg s.c., day 4) of the same compound?
Answer: 100

Question: What about the survival rate (10 mg/kg s.c., day 5) of the same compound?
Answer: 100

Question: And the survival rate (10 mg/kg s.c., day 6)?
Answer: 100

Question: What about the survival rate (10 mg/kg s.c., day 7) of the same compound?
Answer: 100

Question: And the survival rate (10 mg/kg s.c., day 8)?
Answer: 100

Question: And the survival rate (10 mg/kg s.c., day 9)?
Answer: 100

Question: What about the survival rate (10 mg/kg s.c., day 10) of the same compound?
Answer: 100

Question: What about the survival rate (10 mg/kg s.c., day 11) of the same compound?
Answer: 100

Question: What about the survival rate (10 mg/kg s.c., day 12) of the same compound?
Answer: 100

Question: And the survival rate (10 mg/kg s.c., day 13)?
Answer: 100

Question: And the survival rate (10 mg/kg s.c., day 14)?
Answer: 100

Question: And the “T/C (%)” value (10 mg/kg s.c.)?
Answer: 242%
